Source: US20180170941A1 (priority 2016, published 2018)
Where two headings read alike, the source gives them in different places.

Target: T1, α5β3γ2 GABAA receptors (Ltk cell membranes) (Homo sapiens, UniProt P18507+P31644)
T1 construct: membranes
Test: Binding activity of test compounds on GABAAR: inhibition of [3H]Ro15-1788 binding
Procedure, shortened: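 Membranes from dexamethasone-induced Ltk cells (α5 line: 0.5 μM, 1 day); binding with [3H]Ro15-1788 for 1 h at 4 °C in 50 mM KH2PO4, 1 mM EDTA, 0.2 M KCl, pH 7.4, 0.2 mg/ml α5 protein. Nonspecific binding defined by 10 μM diazepam; filtration, scintillation counting, triplicates.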

[1] = GABA α5 Binding Ki Values, inhibition of [3H]Ro15-1788 binding, reported as ranges
[2] = inhibition of [3H]Ro15-1788 binding, reported as ranges

T1 sequence (P31644 32-462): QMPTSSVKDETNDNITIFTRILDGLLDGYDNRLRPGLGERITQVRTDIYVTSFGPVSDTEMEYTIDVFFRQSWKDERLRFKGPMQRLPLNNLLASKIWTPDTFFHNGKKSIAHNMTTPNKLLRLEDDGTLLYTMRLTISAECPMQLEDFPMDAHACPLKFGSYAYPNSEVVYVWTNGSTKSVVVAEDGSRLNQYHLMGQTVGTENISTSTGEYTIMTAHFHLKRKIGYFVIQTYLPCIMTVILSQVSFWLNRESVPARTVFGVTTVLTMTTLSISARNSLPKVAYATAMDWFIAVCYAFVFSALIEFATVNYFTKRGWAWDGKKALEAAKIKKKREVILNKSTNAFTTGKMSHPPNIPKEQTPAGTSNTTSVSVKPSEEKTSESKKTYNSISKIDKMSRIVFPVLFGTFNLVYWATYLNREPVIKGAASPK
T1 sequence (P28472 26-473 partner): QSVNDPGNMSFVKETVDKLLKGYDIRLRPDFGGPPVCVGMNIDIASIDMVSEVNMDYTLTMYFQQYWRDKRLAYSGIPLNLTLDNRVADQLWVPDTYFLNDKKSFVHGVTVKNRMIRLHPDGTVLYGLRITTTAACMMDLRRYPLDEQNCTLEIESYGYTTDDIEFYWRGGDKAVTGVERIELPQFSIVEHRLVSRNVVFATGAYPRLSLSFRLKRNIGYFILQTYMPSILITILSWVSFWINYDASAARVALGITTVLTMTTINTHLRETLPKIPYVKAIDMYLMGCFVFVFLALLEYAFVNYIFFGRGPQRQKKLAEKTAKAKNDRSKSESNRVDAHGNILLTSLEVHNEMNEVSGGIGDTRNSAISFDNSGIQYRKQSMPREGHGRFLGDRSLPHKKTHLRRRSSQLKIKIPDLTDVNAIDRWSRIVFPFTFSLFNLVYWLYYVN
T1 sequence (P18507 40-475): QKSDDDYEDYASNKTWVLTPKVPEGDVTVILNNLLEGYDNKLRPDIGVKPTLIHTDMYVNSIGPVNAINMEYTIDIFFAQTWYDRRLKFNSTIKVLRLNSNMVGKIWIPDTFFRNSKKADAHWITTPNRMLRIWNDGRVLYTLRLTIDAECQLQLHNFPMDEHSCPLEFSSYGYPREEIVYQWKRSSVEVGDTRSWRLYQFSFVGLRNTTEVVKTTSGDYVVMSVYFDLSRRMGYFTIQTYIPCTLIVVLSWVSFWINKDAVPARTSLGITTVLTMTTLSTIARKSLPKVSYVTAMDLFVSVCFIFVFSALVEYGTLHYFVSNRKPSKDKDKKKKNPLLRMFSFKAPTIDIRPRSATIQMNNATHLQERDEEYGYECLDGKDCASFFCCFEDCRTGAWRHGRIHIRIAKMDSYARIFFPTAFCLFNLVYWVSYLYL

COc1ccc2c(c1)-n1nnc(-c3ccccc3)c1Cc1c(-c3nc(C)no3)ncn1-2 [Compound 273]
Ki [1]: 100 to 1000 nM

COc1ccc2c(c1)-n1nncc1Cc1c(C#CCc3cccc(OC(F)(F)F)c3)ncn1-2 [Compound 418]
Ki [1]: < 100 nM

CCOCc1nnc2n1Cc1c(-c3noc(C(C)C)n3)ncn1-c1ccc(OC)cc1-2 [Compound 173]
Ki [1]: < 100 nM

COCc1nnc2n1Cc1c(-c3nc(C)no3)ncn1-c1c(Cl)cccc1-2 [Compound 463]
Ki: > 1000 nM

COCc1nnc2n1Cc1c(C#Cc3ccccc3)ncn1-c1ccc(Cl)cc1-2 [Compound 285]
Ki [1]: < 100 nM

COc1ccc2c(c1)-n1nncc1Cc1c(C#CC(C)C)ncn1-2 [Compound 424]
Ki [1]: < 100 nM

COc1ccc2c(c1)-c1nnc(COc3cccnc3)n1Cc1c(-c3noc(C(C)C)n3)ncn1-2 [Compound 176]
Ki [1]: < 100 nM

COCc1nnc2n1Cc1c(C3=N[C@@H](c4ccccc4C)CO3)ncn1-c1ccc(Cl)cc1-2 [Compound 330]
Ki [1]: < 100 nM

COc1ccc2c(c1)-n1nnc(Cc3cccc(Cl)c3)c1Cc1c(C#N)ncn1-2 [Compound 209]
Ki [1]: < 100 nM

CCOC(=O)c1ncn2c1Cc1c(Cc3ccccc3Cl)nnn1-c1cc(OC)ccc1-2 [Compound 108]
Ki [1]: < 100 nM

COCc1nnc2n1Cc1c(C#CC(=O)c3ccccc3)ncn1-c1ccc(Cl)cc1-2 [Compound 455]
Ki [1]: < 100 nM

CCOCc1nnc2n1Cc1c(-c3ncco3)ncn1-c1ccc(Cl)cc1-2 [Compound 341]
Ki [1]: < 100 nM

COc1ccc2c(c1)-n1nnc(COc3ccccc3F)c1Cc1c(C#N)ncn1-2 [Compound 223]
Ki [1]: < 100 nM

COc1ccc2c(c1)-c1nnc(COc3ccccc3Cl)n1Cc1c(-c3noc(C(C)C)n3)ncn1-2 [Compound 175]
Ki [1]: < 100 nM

CCOC(=O)c1ncn2c1Cn1c(COc3ccccc3)nnc1-c1cc(OC)ccc1-2 [Compound 55]
Ki [1]: < 100 nM

CCOC(=O)c1ncn2c1Cc1c(CN3CCOCC3)nnn1-c1cc(OC)ccc1-2 [Compound 49]
Ki [1]: < 100 nM

CC(C)OCc1nnc2n1Cc1c(/C=C/c3ccc(F)cc3)ncn1-c1ccc(Cl)cc1-2 [Compound 447]
Ki: > 1000 nM

CCOCc1nnc2n1Cc1c(-c3nc(C)no3)ncn1-c1ccc(Cl)cc1-2 [Compound 255]
Ki [1]: < 100 nM

COCc1nnc2n1Cc1c(C3=N[C@H](c4ccccc4)CO3)ncn1-c1ccc(Cl)cc1-2 [Compound 263]
Ki [1]: < 100 nM

COCc1nnc2n1Cc1c(-c3ncco3)ncn1-c1ccc(Cl)cc1-2 [Compound 249]
Ki [1]: < 100 nM

Cc1nnn2c1Cc1c(C(=O)OC(C)C)ncn1-c1ccccc1-2 [Compound 153]
Ki [1]: < 100 nM

COc1ccc2c(c1)-n1nncc1Cc1c(C#Cc3cccnc3)ncn1-2 [Compound 407]
Ki [1]: < 100 nM

C#Cc1ncn2c1Cn1c(COc3ccccc3)nnc1-c1cc(Cl)ccc1-2 [Compound 205]
Ki [1]: < 100 nM

CCOC(=O)c1ncn2c1Cc1c(C)nnn1-c1cc(C)ccc1-2 [Compound 102]
Ki [1]: < 100 nM

Clc1ccc2c(c1)-c1nnc(COc3ccccc3)n1Cc1c(Br)ncn1-2 [Compound 202]
Ki [1]: < 100 nM

CC(C)c1noc(-c2ncn3c2Cn2c(COc4ccccc4)nnc2-c2cc(F)ccc2-3)n1 [Compound 141]
Ki [1]: 100 to 1000 nM

C#Cc1nc(C)n2c1Cn1c(COC(C)C)nnc1-c1cc(Cl)ccc1-2 [Compound 305]
Ki [1]: 100 to 1000 nM

Cc1nnn2c1Cc1c(-c3ccccc3)ncn1-c1ccc(F)cc1-2 [Compound 139]
Ki [1]: 100 to 1000 nM

COc1ccc2c(c1)-c1nnc(COc3ccccc3)n1Cc1c(C(=O)OCC(C)(C)C)ncn1-2 [Compound 119]
Ki [1]: 100 to 1000 nM

CCOCc1nnc2n1Cc1c(-c3cc(C)no3)ncn1-c1ccc(Cl)cc1-2 [Compound 278]
Ki [1]: < 100 nM

COc1ccc2c(c1)-n1nncc1Cc1c(C#Cc3ccccn3)ncn1-2 [Compound 408]
Ki [1]: < 100 nM

CCOC(=O)c1ncn2c1Cc1c(Cc3ccccc3)nnn1-c1ccccc1-2 [Compound 5]
Ki [1]: < 100 nM

COCc1nnc2n1Cc1c(C3=N[C@@H](c4ccccc4)CO3)ncn1-c1ccc(OC)cc1-2 [Compound 343]
Ki [1]: < 100 nM

COCc1nnc2n1Cc1c(C3=NC[C@@H](C)O3)ncn1-c1ccc(Cl)cc1-2 [Compound 294]
Ki [1]: < 100 nM

Cc1cc(-c2ncn3c2Cc2c(C)nnn2-c2cc(F)ccc2-3)ccn1 [Compound 154]
Ki [1]: > 1000 nM

Cc1nnn2c1Cc1c(-c3noc(C(C)C)n3)ncn1-c1ccc(F)cc1-2 [Compound 149]
Ki [1]: < 100 nM

COc1ccc(C#Cc2ncn3c2Cc2cnnn2-c2cc(Cl)ccc2-3)cc1 [Compound 397]
Ki [1]: < 100 nM

COc1ccc2c(c1)-n1nncc1Cc1c(C3=N[C@@H](c4ccc(Cl)cc4Cl)CO3)ncn1-2 [Compound 374]
Ki [1]: 100 to 1000 nM

COCc1nnc2n1Cc1c(-c3ncc(C)o3)ncn1-c1ccc(Cl)cc1-2 [Compound 296]
Ki [1]: < 100 nM

Clc1ccc2c(c1)-n1nncc1Cc1c(-c3ncco3)ncn1-2 [Compound 393]
Ki [1]: < 100 nM

Cc1ccccc1C#Cc1ncn2c1Cc1cnnn1-c1cc(Cl)ccc1-2 [Compound 396]
Ki [1]: < 100 nM

CC(C)OCc1nnc2n1Cc1c(C3=N[C@@H](c4ccc(F)cc4)CO3)ncn1-c1ccc(Cl)cc1-2 [Compound 326]
Ki [1]: < 100 nM

CCOCc1nnc2n1Cc1c(C3=NCCO3)ncn1-c1ccc(Cl)cc1-2 [Compound 317]
Ki [1]: < 100 nM

C#Cc1ncn2c1Cc1c(C(=O)c3ccc(Cl)cc3)nnn1-c1cc(OC)ccc1-2 [Compound 219]
Ki [1]: 100 to 1000 nM

C#Cc1ncn2c1Cn1c(COC)nnc1-c1cc(Cl)ccc1-2 [Compound 256]
Ki [1]: < 100 nM

COCc1nnc2n1Cc1c(COCc3ccccc3)ncn1-c1ccc(Cl)cc1-2 [Compound 430]
Ki [2]: > 1000 nM

COc1ccc2c(c1)-c1nnc(COc3ccccc3C(C)(C)C)n1Cc1c(C#N)ncn1-2 [Compound 192]
Ki: > 1000 nM

COc1ccc2c(c1)-c1nnc(COCc3cccc(F)c3)n1Cc1c(-c3noc(C(C)C)n3)ncn1-2 [Compound 183]
Ki [1]: < 100 nM

Cc1nnn2c1Cc1c(-c3ncon3)ncn1-c1ccc(F)cc1-2 [Compound 151]
Ki [1]: < 100 nM

COc1ccc2c(c1)-n1nncc1Cc1c(C3=N[C@@H](c4cccc(C(F)(F)F)c4)CO3)ncn1-2 [Compound 371]
Ki [1]: 100 to 1000 nM

CCOCc1nnc2n1Cc1c(C3=N[C@@H](c4ccccc4)CO3)ncn1-c1ccc(Cl)cc1-2 [Compound 275]
Ki [1]: < 100 nM

Clc1ccc2c(c1)-c1nnc(COCc3ccccc3)n1Cc1c(-c3ncco3)ncn1-2 [Compound 350]
Ki [1]: < 100 nM

Cc1noc(-c2ncn3c2Cc2c(C)nnn2-c2ccccc2-3)n1 [Compound 126]
Ki [1]: < 100 nM

COCc1nnc2n1Cc1c(C3=N[C@@H](c4ccc(Cl)cc4)CO3)ncn1-c1ccc(Cl)cc1-2 [Compound 334]
Ki [1]: < 100 nM

COCc1nnc2n1Cc1c(COCc3cccc(F)c3)ncn1-c1ccc(Cl)cc1-2 [Compound 432]
Ki [2]: > 1000 nM

C#Cc1ncn2c1C(Cc1ccccc1F)c1cnnn1-c1cc(OC)ccc1-2 (stereo not drawn) [Compound 451]
Ki [1]: < 100 nM

COc1ccc2c(c1)-c1nnc(COc3ccccc3)n1Cc1c(Br)ncn1-2 [Compound 232]
Ki [1]: < 100 nM

Cc1noc(-c2ncn3c2Cc2c(C)nnn2-c2cc(F)ccc2-3)n1 [Compound 110]
Ki [1]: 100 to 1000 nM

Cc1cc(-c2ncn3c2Cn2c(COCC(F)(F)F)nnc2-c2cc(Cl)ccc2-3)on1 [Compound 303]
Ki [1]: 100 to 1000 nM

COc1ccc2c(c1)-c1nnc(COc3ccccc3C(F)(F)F)n1Cc1c(C#N)ncn1-2 [Compound 193]
Ki: > 1000 nM
